# According to patent publication US9593140B2, “Antibacterial tylosin derivatives and methods for their preparation” (Bayer Intellectual Property GmbH, priority 2011, dated 2017):
# How the values were obtained:
# Type in all cases: cell-based
# [1] = tested on: Mannhemia hemolytica KB345; assay: Paper disc assay, M. hemolytica KB345 (Tilmicosin-sensitivity strain); details: for zone of inhibition at 1 mg/disc: 1 mg/6 mm disk; for Inhibition zone (mm): Table 4
# Method: (§1) (1) Antibacterial Activities Against Mannheimia and Pasteurella were Determined by the Following Steps:
# (§2) 1) M. hemolytica KB345 (Tilmicosin-sensitivity strain) and M. hemolytica KB346 (Tilmicosin-low sensitivity strain) were provided. KB 345 strain stored at −80° C. was seeded to BHIB agar medium (10 mL) by using Microbank beads (Pro-Lab) and platinum nail. After statically incubating the KB 345 strain for 24 hours at 37° C., it was seeded to maintaining slant BHIB agar medium (7 mL) by using platinum loop, further statically incubated for 24 hours at 37° C. to obtain slant. One platinum loop of KB 345 strain stored at the slant was inoculated into a large test tube charged with BHIB liquid medium (10 mL) and then incubated for 24 hours at 37° C. with shaking.
# (§3) 2) A paper disc (ADVANTEC, Φ:6 mm) was impregnated with a solution of test compound and dried under reduced pressure.
# (§4) 3) To a melted BHIB agar medium was inoculated 1% of the broth obtained from step 1) above to prepare a test plate. After the medium set, the paper disc prepared in step 2) above was put on the plate and it was incubated at 37° C.
# (§5) 4) After one day, the inhibition zone diameter and clarity (A to E) were determined.
# [2] = tested on: Bacillus subtilis ATCC6633; assay: Paper disc assay, Bacillus subtilis (S)
# Method: (§6) (2) Antibacterial activities against other bacteria were determined with Micrococcus luteus ATCC9341 (1), Bacillus subtilis […] (s), Escherichia coli NIHJ (c), Xanthomonas campestris KB88 (X), Mucor racemosus IFO 4581 (Mu) and Candida albicans ATCC 64548 (Ca).
# (§7) Bacillus subtilis ATCC6633 was incubated in Davis synthetic medium and then the seed broth was combined with the medium in the ratio of 1:99 to obtain a test plate. Micrococcus luteus ATCC9341, Escherichia coli NIHJ and Xanthomonas campestris KB88 were respectively incubated in Nutrient agar medium and inoculated at 0.2%, 0.5% and 1.0%. Mucor racemosus IFO 4581 and Candida albicans ATCC 64548 were respectively incubated in GY agar medium and then inoculated at 0.3% and 0.2%.
# (§8) A paper disc (ADVANTEC, Φ:6 mm) was impregnated with a solution of test compound and dried under reduced pressure. The paper disc was put on the test plate and it was incubated for 24 hours at 37° C. After incubation, the inhibition zone diameter and clarity (A to E) were determined.
# [3] = tested on: Micrococcus luteus ATCC9341; assay: Paper disc assay, Micrococcus luteus (l)
# Method: as §6, §7, §8
# Escherichia coli NIHJ = assay: Paper disc assay, Escherichia coli (c)
# Method: as §6, §7, §8
# [4] = tested on: Xanthomonas campestris KB88; assay: Paper disc assay, Xanthomonas campestris (X)
# Method: as §6, §7, §8
# [5] = tested on: Mannhemia hemolytica KB346; assay: Paper disc assay, M. hemolytica KB346 (Tilmicosin-low sensitivity strain); details: Table 5; 100 mg/6 mm disk
# Method: as §1, §2, §3, §4, §5
# For KB346 strain, the same procedures were repeated.
# [6] = tested on: Mannheimia Haemolytica, 3 isolates; assay: Minimal inhibitory concentrations, cattle pathogen isolates
# Method: (§9) The antibacterial activity by the compounds of the present invention may be measured using a number of assays available in the art. […] Minimal inhibitory concentrations (MICs) were determined against the most prevalent pathogens in cattle (Mannheimia Haemolytica, 3 isolates) and swine (A. pleuropneumoniae, 6 isolates).The results are summarized in Table 7.
# [7] = tested on: A. pleuropneumoniae, 6 isolates; assay: Minimal inhibitory concentrations, swine pathogen isolates
# Method: as §9
SMILES,"zone of inhibition at 1 mg/disc ([1]; 24 h, Table 2) [mm]","zone of inhibition at 3 mg/disc ([1]; 24 h, Table 2, 3 mg/6 mm disk) [mm]",Inhibition zone (mm) ([2]; 0.1 mg/6 mm disc),Inhibition zone (mm) ([2]; 1 mg/6 mm disc),Inhibition zone (mm) ([2]; 10 mg/6 mm disc),Inhibition zone (mm) ([3]; 0.1 mg/6 mm disc),Inhibition zone (mm) ([3]; 1 mg/6 mm disc),Inhibition zone (mm) ([3]; 10 mg/6 mm disc),Inhibition zone (mm) (Escherichia coli NIHJ; 10 mg/6 mm disc),Inhibition zone (mm) ([4]; 0.1 mg/6 mm disc),Inhibition zone (mm) ([4]; 1 mg/6 mm disc),Inhibition zone (mm) ([4]; 10 mg/6 mm disc),other results
"CC[C@H]1OC(=O)C[C@@H](O)[C@H](C)[C@@H](O[C@@H]2O[C@H](C)[C@@H](O)C(N(C)C)C2O)[C@@H](CCN2CC(C)CC(C)C2)C[C@@H](C)C(=O)/C=C/C(C)=C/[C@@H]1CO[C@@H]1OC(C)[C@@H](O)[C@H](OC)C1OC (stereo partly drawn) [Tilmicosin, reference compound]",10.7,13.5,14,11,18,12,19,27.5,20,12,20,30,Inhibition zone (mm) (Escherichia coli NIHJ; 1 mg/6 mm disc): 13 mm
"CC[C@H]1OC(=O)C[C@@H](O)[C@H](C)[C@@H](O[C@@H]2O[C@H](C)[C@@H](O)[C@H](N(C)C)[C@H]2O)[C@@H](CCn2cc(-c3ccsc3)nn2)C[C@@H](C)C(=O)/C=C/C(C)=C/[C@@H]1CO[C@@H]1O[C@H](C)[C@@H](O)[C@@H](OC)[C@H]1OC [YT14, 20-(4-(thiophene-3-yl)-1H-1,2,3-triazol-1-yl)-20-deoxodesmycosin]",11,14,8,11,15,13.5,20.5,26.5,7,7,16,22,"zone of inhibition at 10 mg/disc ([1]; 24 h, Table 2, 10 mg/6 mm disk): 16.5 mm; zone of inhibition at 30 mg/disc ([1]; 24 h, Table 2, 30 mg/6 mm disk): 19.5 mm; zone of inhibition at 100 mg/disc ([1]; 24 h, Table 2, 100 mg/6 mm disk): 22 mm"
"CC[C@H]1OC(=O)C[C@@H](O)[C@H](C)[C@@H](O[C@@H]2O[C@H](C)[C@@H](O)[C@H](N(C)C)[C@H]2O)[C@@H](CCn2cc(-c3ccccc3)nn2)C[C@@H](C)C(=O)/C=C/C(C)=C/[C@@H]1CO [YT112, 20-(4-phenyl-1H-1,2,3-triazol-1-yl)-20-deoxo-5-O-mycaminosyltylonolide]",,,,,,,,,,,,,Inhibition zone (mm) ([1]; 3 mg/6 mm disk): 17.0 mm; Inhibition zone (mm) ([1]; 10 mg/6 mm disk): 20.0 mm; Inhibition zone (mm) ([1]; 30 mg/6 mm disk): 25.0 mm; Inhibition zone (mm) ([1]; 100 mg/6 mm disk): 29.0 mm; Inhibition zone (mm) [5]: 11.5 mm; MICs ([6]; M. haemolytica isolate 1): 8 µg/mL; MICs ([6]; M. haemolytica isolate 2): 4 µg/mL; MICs ([6]; M. haemolytica isolate 3): 8 µg/mL; MICs ([7]; pleuropneumoniae isolate 1): 4 µg/mL; MICs ([7]; pleuropneumoniae isolate 2): 4 µg/mL; MICs ([7]; pleuropneumoniae isolate 3): 4 µg/mL; MICs ([7]; pleuropneumoniae isolate 4): 8 µg/mL; MICs ([7]; pleuropneumoniae isolate 5): 4 µg/mL; MICs ([7]; pleuropneumoniae isolate 6): 8 µg/mL
